Tests used:
Test in all cases: relative viability (nuclei count vs DMSO), 5 days (fraction); higher = more cells survive
[1] = compound: CC(C)N(CCCNC(=O)Nc1ccc(C(C)(C)C)cc1)C[C@H]1O[C@@H](n2ccc3c(N)ncnc32)[C@H](O)[C@@H]1O + CC(=O)c1c(C)c2cnc(Nc3ccc(N4CCNCC4)cn3)nc2n(C2CCCC2)c1=O [Palbociclib] (partner 0.5 µM)
Method in brief: (§1)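 Lung cancer cell lines were seeded in 1536-well plates and dosed by pin tool the next day, with either a single drug or a fixed anchor-drug dose combined with five library-drug doses (not always all listed) spaced in √10 steps. Five days later, one step fixed the cells and stained their nuclei (final 0.05% Triton X-100, 1% formaldehyde, 1 ug/ml Hoechst), and nuclei were counted on 4× images. Relative viability is the nuclei count in treated wells divided by the count in vehicle wells, and each value is the median of duplicate plates.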

[2] = compound: CC(C)=CC[C@@H](O)C1=CC(=O)c2c(O)ccc(O)c2C1=O [Shikonin] + CS(=O)(=O)CCNCc1ccc(-c2ccc3ncnc(Nc4ccc(OCc5cccc(F)c5)c(Cl)c4)c3c2)o1 [Lapatinib] (partner 2 µM)
Method in brief: as §1

[3] = compound: CC(C)N(CCCNC(=O)Nc1ccc(C(C)(C)C)cc1)C[C@H]1O[C@@H](n2ccc3c(N)ncnc32)[C@H](O)[C@@H]1O + CCNC(=O)c1noc(-c2cc(C(C)C)c(O)cc2O)c1-c1ccc(CN2CCOCC2)cc1 [Luminespib] (partner 0.01 µM)
Method in brief: as §1

[4] = compound: CC(C)N(CCCNC(=O)Nc1ccc(C(C)(C)C)cc1)C[C@H]1O[C@@H](n2ccc3c(N)ncnc32)[C@H](O)[C@@H]1O + N=C(N)NC(=N)NCCc1ccccc1 [Phenformin] (partner 250 µM)
Method in brief: as §1

Cell Line | relative viability ([1]; first compound 0.08 µM) | relative viability ([1]; first compound 0.253 µM) | relative viability ([1]; first compound 0.8 µM) | relative viability ([1]; first compound 2.53 µM) | relative viability ([1]; first compound 8 µM) | relative viability ([2]; first compound 0.01 µM) | relative viability ([2]; first compound 0.1 µM) | relative viability ([2]; first compound 0.3162 µM) | relative viability ([2]; first compound 1 µM) | relative viability ([3]; first compound 0.08 µM) | relative viability ([3]; first compound 0.253 µM) | relative viability ([3]; first compound 0.8 µM) | relative viability ([3]; first compound 2.53 µM) | relative viability ([3]; first compound 8 µM) | relative viability ([4]; first compound 0.08 µM) | relative viability ([4]; first compound 0.253 µM) | relative viability ([4]; first compound 0.8 µM) | relative viability ([4]; first compound 2.53 µM) | relative viability ([4]; first compound 8 µM)
NCI-H1648 | 0.268 | 0.315 | 0.335 | 0.287 | 0.323 |  |  |  |  |  |  |  |  |  |  |  |  |  | 
SK-MES-1 | 0.317 | 0.357 | 0.309 | 0.375 | 0.325 | 0.543 | 0.509 | 0.514 | 0.463 | 0.693 | 0.723 | 0.929 | 0.872 | 0.717 | 0.663 | 0.669 | 0.692 | 0.69 | 0.617
NCI-H520 | 0.237 | 0.196 | 0.191 | 0.226 | 0.25 |  | 0.813 | 0.884 | 0.923 | 0.22 | 0.219 | 0.239 | 0.221 | 0.232 | 0.606 | 0.342 | 0.353 | 0.655 | 0.618
HCC-366 | 0.34 | 0.372 | 0.41 | 0.375 | 0.396 | 1.34 | 1.24 | 1.11 | 1.03 |  |  |  |  |  | 0.625 | 0.627 | 0.754 | 0.588 | 0.53
201T | 0.338 | 0.352 |  | 0.328 | 0.357 | 1.05 | 1.12 | 1.02 | 1.05 | 1.04 | 1.01 | 1.13 | 0.984 | 1.06 | 0.474 | 0.421 | 0.43 | 0.421 | 0.401
HCC-827 | 0.22 | 0.468 | 0.32 | 0.477 | 0.5 | 0.166 | 0.17 | 0.191 | 0.19 | 0.625 | 0.573 |  | 0.599 | 0.688 | 0.393 | 0.383 |  | 0.417 | 0.417
NCI-H661 | 0.395 | 0.437 | 0.45 | 0.423 | 0.423 | 0.575 | 0.494 | 0.501 | 0.594 | 0.936 | 0.966 | 0.947 | 0.975 | 0.957 | 0.28 | 0.27 | 0.276 | 0.288 | 0.305
NCI-H2085 | 0.47 | 0.48 | 0.524 | 0.547 | 0.481 | 0.767 | 0.727 | 0.718 | 0.774 | 0.434 | 0.506 | 0.441 | 0.414 | 0.389 | 0.693 | 0.592 | 0.816 | 0.789 | 0.631
NCI-H647 | 0.35 | 0.396 | 0.3 | 0.406 | 0.421 | 1.16 | 1.17 | 1.35 | 0.88 | 0.267 | 0.461 |  | 0.241 | 0.245 | 0.469 | 0.559 |  | 0.478 | 0.568
SW 1573 | 0.377 | 0.431 | 0.419 | 0.401 | 0.336 | 1.07 | 1.18 | 1.14 | 1.19 | 0.348 |  | 0.356 | 0.172 | 0.194 | 0.262 | 0.403 | 0.435 | 0.391 | 0.378
A-427 | 0.525 | 0.546 | 0.556 | 0.578 | 0.515 | 1.05 | 1.37 | 0.967 | 1.14 | 0.889 | 0.875 | 1.03 | 0.884 | 0.817 | 0.368 | 0.303 | 0.335 | 0.364 | 0.315
NCI-H460 | 0.207 | 0.201 | 0.139 | 0.181 | 0.111 | 1.32 | 1.51 | 0.951 | 1.12 | 0.0341 | 0.0252 | 0.0359 | 0.0291 | 0.0376 | 0.493 | 0.555 | 0.54 | 0.485 | 0.436
NCI-H1703 |  |  |  |  |  | 1.15 | 1.33 | 1.15 | 0.647 |  |  |  |  |  |  |  |  |  | 
NCI-H1792 | 0.631 | 0.671 | 0.773 | 0.639 | 0.643 | 0.922 | 1.06 | 0.968 | 1.09 | 0.47 |  | 0.394 | 0.446 | 0.439 | 0.374 |  | 0.223 | 0.418 | 0.472
Calu-6 |  |  |  |  |  | 1.16 | 1.34 | 1.11 | 1.16 |  |  |  |  |  |  |  |  |  | 
SK-LU-1 | 0.431 | 0.42 | 0.332 | 0.389 | 0.36 | 1.07 | 0.869 | 0.724 | 0.786 | 0.193 | 0.202 | 0.182 | 0.252 | 0.191 | 0.569 | 0.493 | 0.519 | 0.56 | 0.45
EMC-BAC-2 | 0.507 | 0.499 | 0.512 | 0.502 | 0.485 | 0.939 | 0.999 | 0.941 | 0.923 | 1.16 | 1.15 | 1.22 | 1.24 | 1.13 | 0.564 | 0.581 | 0.565 | 0.543 | 0.449
LK-2 |  | 0.665 | 0.845 | 0.775 | 0.622 | 1.26 | 1.06 | 1.22 | 1.06 | 0.185 | 0.193 | 0.191 | 0.169 | 0.214 | 0.433 | 0.326 | 0.433 | 0.562 | 0.411
NCI-H2228 | 0.789 | 0.56 | 0.643 | 0.77 | 0.701 | 0.913 | 0.902 | 0.921 | 0.83 | 0.218 | 0.191 | 0.178 | 0.144 | 0.18 | 0.403 | 0.297 | 0.298 | 0.274 | 0.231
